Entries after “also recorded” stand apart in the source; their conditions may differ.
Tested on: patients with IgA nephropathy
Test: Placebo-controlled clinical trial in IgA nephropathy: GFRest, UP/C and Composite Response/Outcome Scores
Format: in vivo, human
Source text: In a multicenter, placebo-controlled, double blind clinical trial, we evaluated the efficacy of a 24-month stable daily dose (4 grams per day) of a highly purified preparation of O3 (especially icosapent & doconexent).
We performed secondary analyses based on clinical response scores derived from changes in the level of proteinuria (defined by urine protein to creatinine ratios in first morning urine specimens) and GFRest. Composite Response Score, which represented changes in proteinuria and GFR scores were also calculated.
This was a placebo-controlled, prospective clinical trial. After fulfilling all entry criteria, patients were assigned to one of three treatment arms, as described in our paper discussing the primary analysis of this study.
Randomization of patients was stratified by hypertensive status and blocked randomization was used within each stratum.
Estimation of GFR and level of proteinuria. The glomerular filtration rate (GFR) was estimated at 6 monthly intervals in each patient using standard age-appropriate formulas. […] Serum creatinine measurements were measured by HPLC. […]
Statistical analysis: After it was noted that there was wide variation in the plasma phospholipid fatty acid profiles in patients receiving icosapent/doconexent (FIG. 1), a series of secondary analyses was conducted to determine the cause for this variability and to evaluate if the fatty acid profiles affected patient outcome. Clinical response scores were determined for each patient based on changes in the estimated GFR (−5 to +5) and urine protein/creatinine ratios (−5 to +5) at each 6 month visit up to 36 months. Composite response scores (−10 to +10) at each time interval were then determined based on the patients' combined GFR and UP/C Response Scores—with equal weight given to each (Table 1). Clinical outcome scores were then calculated based on the mean of the Composite Response Scores at 18 and 24 months. The dosage of the study drugs given to each patient was calculated as g/kg body weight and g/m^2 BSA. […]

C[C@]12C=CC(=O)C=C1CC[C@@H]1[C@@H]2C(=O)C[C@@]2(C)[C@H]1CC[C@]2(O)C(=O)CO [prednisone]
Composite Response Scores, treatment arm as a whole (6-month intervals, 0 to 36 months, FIG. 2): significantly better; also recorded: better response
Primary analysis: decrease of GFR to less than 60% of baseline (24-month treatment, O3 4 grams per day, prednisone alternate-day): did not show a statistically significant benefit
Secondary analysis: efficacy by clinical response scores (proteinuria and GFRest) (secondary analyses): effective

— patent US20060058384A1, “Treatment of IGA nephropathy with omega-3 fatty acids” (PRONOVA BIOCARE, A.S., priority 2004, published 2006)
